We go through 19 compounds from US10807952B2 (Achillion Pharmaceuticals, Inc., priority 2015, dated 2020).

Each structure is given as a SMILES string. Structures can show the parent of a compound that is named as a salt.

Human Factor D, sequence (P00746 26-253): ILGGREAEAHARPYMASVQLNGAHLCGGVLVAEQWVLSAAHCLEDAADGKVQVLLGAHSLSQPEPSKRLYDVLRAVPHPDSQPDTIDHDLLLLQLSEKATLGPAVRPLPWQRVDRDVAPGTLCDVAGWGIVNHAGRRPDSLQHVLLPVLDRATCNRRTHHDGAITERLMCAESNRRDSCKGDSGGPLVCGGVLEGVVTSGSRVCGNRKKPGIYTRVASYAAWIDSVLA

The first test deals with Human Factor D (Homo sapiens (Human), UniProt P00746). Description: Human Factor D assay (Z-L-Lys-SBzl / DTNB, absorbance at 405 nm). Type of test: biochemical. Conditions: Table 3; Human Factor D 80 nM, assay of Example 13. How it is done:
Human Factor D (purified from human serum, Complement Technology, Inc.) at 80 nM final concentration was incubated with test compound at various concentrations for 5 minutes at room temperature in 50 mM Tris, 1M NaCl, pH 7.5. A synthetic substrate Z-L-Lys-SBzl and DTNB (Ellman's reagent) were added to final concentrations of 100 μM each. […] IC50 values were calculated by nonlinear regression of complement Factor D reaction rates as a function of test compound concentration.
For `NC(=O)c1nn(CC(=O)N2C[C@H](F)C[C@H]2C(=O)Nc2cccc(-c3ccc4[nH]ncc4c3Cl)c2F)c2ccccc12` [Compound 17, 1-(2-((2S,4R)-2-(3-(4-chloro-1H-indazol-5-yl)-2-fluorophenyl-carbamoyl)-4-fluoropyrrolidin-1-yl)-2-oxoethyl)-1H-indazole-3-carboxamide], the IC50 was < 1000 nM.
The same measure, in the same setting: with `CC(=O)c1cn(CC(=O)N2C[C@H](F)C[C@H]2C(=O)Nc2cccc(Br)n2)c2ccc(S(C)(=O)=NC(=O)OC(C)(C)C)cc12` (stereo partly drawn) [Compound 69, tert-butyl ((3-acetyl-1-(2-((2S,4R)-2-((6-bromopyridin-2-yl)carbamoyl)-4-fluoropyrrolidin-1-yl)-2-oxoethyl)-1H-indol-5-yl)(methyl)(oxo)-[…]^6-sulfanylidene)-[…]^4-azanecarboxylate e( )] the figure was < 1000 nM; with `NC(=O)c1nn(CC(=O)N2C[C@H](F)C[C@H]2C(=O)Nc2cccc(-c3ccc4cn[nH]c4c3Cl)c2F)c2ccccc12` [Compound 47], < 1000 nM.
On the same count and under the same terms, to `CC(=O)c1nc2ccc(-c3cccc(NC(=O)[C@@H]4C[C@@H](F)CN4C(=O)Cn4nc(C(N)=O)c5ccccc54)c3F)c(Cl)c2[nH]1` [Compound 18, 1-(2-((2S,4R)-2-(3-(2-acetyl-7-chloro-1H-benzo[d]imidazol-6-yl)-2-fluorophenyl-carbamoyl)-4-fluoropyrrolidin-1-yl)-2-oxoethyl)-1H-indazole-3-carboxamide] belongs < 1000 nM; to `NC(=O)c1cn(CC(=O)N2C[C@H](F)C[C@H]2C(=O)Nc2cccc(Br)n2)n2ccnc12` [Compound 55, 5-(2-((2S,4R)-2-(6-bromopyridin-2-ylcarbamoyl)-4-fluoropyrrolidin-1-yl)-2-oxoethyl)-5H-imidazo[1,2-b]pyrazole-7-carboxamide], > 10000 nM.
Same read-out and setting: to `NC(=O)c1nn(CC(=O)N2C[C@H](F)C[C@H]2C(=O)Nc2cccc(-c3ccccc3Cl)c2F)c2cc(S(F)(F)(F)(F)F)ccc12` [Compound 45] belongs < 1000 nM.
With `NC(=O)c1cccc(CC(=O)N2C[C@H](F)C[C@H]2C(=O)Nc2cccc(-c3ccccc3Cl)c2F)c1` [Compound 21, (2S,4R)-1-(2-(3-carbamoylphenyl)acetyl)-N-(2′-chloro-2-fluorobiphenyl-3-yl)-4-fluoropyrrolidine-2-carboxamide], the IC50 is < 1000 nM.
Still for that read-out and setting: with `NC(=O)c1nn(CC(=O)N2C[C@H](F)C[C@H]2C(=O)Nc2cccc(-c3ccccc3Cl)c2F)c2cn[nH]c12` [Compound 66, 1-(2-((2S,4R)-2-(2′-chloro-2-fluorobiphenyl-3-ylcarbamoyl)-4-fluoropyrrolidin-1-yl)-2-oxoethyl)-1,4-dihydropyrazolo[4,3-c]pyrazole-3-carboxamide] the figure was < 1000 nM.
As for `CC(=O)c1cn(CC(=O)N2C[C@H](F)C[C@H]2C(=O)Nc2cccc(Br)n2)c2ccc(S(C)(=N)=O)cc12` (stereo partly drawn) [Compound 70, (2S,4R)-1-(2-(3-Acetyl-5-(S-methylsulfonimidoyl)-1H-indol-1-yl)acetyl)-N-(6-bromopyridin-2-yl)-4-fluoropyrrolidine-2-carboxamide hydrochloride], the IC50 is < 1000 nM.
On the same count and under the same terms, to `NC(=O)c1nn(CC(=O)N2C[C@H](F)C[C@H]2C(=O)Nc2cccc(-c3ccc4cc[nH]c4c3)c2F)c2ccccc12` [Compound 25, 1-(2-((2S,4R)-4-fluoro-2-(2-fluoro-3-(1H-indol-6-yl)phenylcarbamoyl)pyrrolidin-1-yl)-2-oxoethyl)-1H-indazole-3-carboxamide] belongs < 1000 nM.
Still for that read-out and setting: to `NC(=O)c1nn(CC(=O)N2C[C@H](F)C[C@H]2C(=O)Nc2cccc(-c3ccc4nc(C(=O)O)[nH]c4c3Cl)c2F)c2ccccc12` [Compound 62, 6-(3-((2S,4R)-1-(2-(3-carbamoyl-1H-indazol-1-yl)acetyl)-4-fluoropyrrolidine-2-carboxamido)-2-fluorophenyl)-7-chloro-1H-benzo[d]imidazole-2-carboxylic acid] belongs < 1000 nM; to `NC(=O)c1nn(CC(=O)N2C[C@H](F)C[C@H]2C(=O)Nc2cccc(-c3ccccc3Cl)c2F)c2cc(Cn3cc(C4CC4)nn3)sc12` [Compound 19, 1-(2-((2S,4R)-2-((2′-Chloro-2-fluoro-[1,1′-biphenyl]-3-yl)carbamoyl)-4-fluoropyrrolidin-1-yl)-2-oxoethyl)-5-((4-cyclopropyl-1H-1,2,3-triazol-1-yl)methyl)-1H-thieno[3,2-c]pyrazole-3-carboxamide], < 1000 nM.

The test is the same for the next values; noted with them: Table 4; Human Factor D 80 nM, assay of Example 13.
Take `CC(=O)c1nn(CC(=O)N2C[C@H](F)C[C@H]2C(=O)Nc2cccc(-c3ccc4[nH]c(=O)[nH]c(=O)c4c3)c2F)c2ccccc12` [Compound 102, (2S,4R)-1-(2-(3-acetyl-1H-indazol-1-yl)acetyl)-N-(3-(2,4-dioxo-1,2,3,4-tetrahydroquinazolin-6-yl)-2-fluorophenyl)-4-fluoropyrrolidine-2-carboxamide]: the IC50 was < 1000 nM.
The same measure, in the same setting: with `CC(=O)c1nn(CC(=O)N2C[C@H](F)C[C@H]2C(=O)Nc2cccc(-c3cc(C(=O)NC#N)ccc3Cl)c2F)c2ccccc12` [Compound 95, (2S,4R)-1-(2-(3-acetyl-1H-indazol-1-yl)acetyl)-N-(2′-chloro-5′-(cyanocarbamoyl)-2-fluoro-[1,1′-biphenyl]-3-yl)-4-fluoropyrrolidine-2-carboxamide] the figure was < 1000 nM; with `CC(=O)c1nn(CC(=O)N2C[C@H](F)C[C@H]2C(=O)Nc2cccc(-c3ccc4sc(O)nc4c3)c2F)c2ccccc12` [Compound 103, (2S,4R)-1-(2-(3-acetyl-1H-indazol-1-yl)acetyl)-4-fluoro-N-(2-fluoro-3-(2-hydroxybenzo[d]thiazol-5-yl)phenyl)pyrrolidine-2-carboxamide], < 1000 nM; with `CC(=O)c1nn(CC(=O)N2C[C@H](F)C[C@H]2C(=O)Nc2cccc(-c3ccc4nccnc4c3)c2F)c2ccccc12` [Compound 83, (2S,4R)-1-(2-(3-acetyl-1H-indazol-1-yl)acetyl)-4-fluoro-N-(2-fluoro-3-(quinoxalin-6-yl)phenyl)pyrrolidine-2-carboxamide], < 1000 nM.
On the same count and under the same terms, to `CC(=O)c1nn(CC(=O)N2C[C@H](F)C[C@H]2C(=O)Nc2cccc(/C=C/c3nc4c(Cl)cccc4[nH]3)c2F)c2ccccc12` [Compound 104, (2S,4R)-1-(2-(3-acetyl-1H-indazol-1-yl)acetyl)-N-(3-((E)-2-(4-chloro-1H-benzo[d]imidazol-2-yl)vinyl)-2-fluorophenyl)-4-fluoropyrrolidine-2-carboxamide] belongs < 1000 nM; to `Cc1cccc(NC(=O)[C@@H]2CCC(F)CCN2C(=O)Cn2cc(C(N)=O)c3cc(C4=CCCCC4)ccc32)n1` (stereo partly drawn) [Compound 106, 5-(cyclohex-1-en-1-yl)-1-(2-((2S)-5-fluoro-2-((6-methylpyridin-2-yl)carbamoyl)azepan-1-yl)-2-oxoethyl)-1H-indole-3-carboxamide], > 10000 nM; to `NC(=O)c1nn(CC(=O)N2C[C@H](F)C[C@H]2C(=O)Nc2cccc(-c3ccc4c(c3)C(=O)CCC4)c2F)c2ccccc12` [Compound 93, 1-(2-((2S,4R)-4-fluoro-2-((2-fluoro-3-(8-oxo-5,6,7,8-tetrahydronaphthalen-2-yl)phenyl)carbamoyl)pyrrolidin-1-yl)-2-oxoethyl)-1H-indazole-3-carboxamide], < 1000 nM.
